# Data reported in patent US20120059162A1, “FUSED IMIDAZOLE DERIVATIVE HAVING TTK INHIBITORY ACTION” (Oncotherapy Science, Inc., priority 2009, published 2012).
# pIC50: −log10 of the molar value.
# Key:
# TTK = target: T1, TTK (Homo sapiens, UniProt P33981); assay: TTK assay: screening of TTK kinase activity suppressing action using p38 MAPK peptide; format: biochemical; conditions: p38 MAPK peptide substrate; read-out: TTK IC50
# T1 sequence (P33981 1-857): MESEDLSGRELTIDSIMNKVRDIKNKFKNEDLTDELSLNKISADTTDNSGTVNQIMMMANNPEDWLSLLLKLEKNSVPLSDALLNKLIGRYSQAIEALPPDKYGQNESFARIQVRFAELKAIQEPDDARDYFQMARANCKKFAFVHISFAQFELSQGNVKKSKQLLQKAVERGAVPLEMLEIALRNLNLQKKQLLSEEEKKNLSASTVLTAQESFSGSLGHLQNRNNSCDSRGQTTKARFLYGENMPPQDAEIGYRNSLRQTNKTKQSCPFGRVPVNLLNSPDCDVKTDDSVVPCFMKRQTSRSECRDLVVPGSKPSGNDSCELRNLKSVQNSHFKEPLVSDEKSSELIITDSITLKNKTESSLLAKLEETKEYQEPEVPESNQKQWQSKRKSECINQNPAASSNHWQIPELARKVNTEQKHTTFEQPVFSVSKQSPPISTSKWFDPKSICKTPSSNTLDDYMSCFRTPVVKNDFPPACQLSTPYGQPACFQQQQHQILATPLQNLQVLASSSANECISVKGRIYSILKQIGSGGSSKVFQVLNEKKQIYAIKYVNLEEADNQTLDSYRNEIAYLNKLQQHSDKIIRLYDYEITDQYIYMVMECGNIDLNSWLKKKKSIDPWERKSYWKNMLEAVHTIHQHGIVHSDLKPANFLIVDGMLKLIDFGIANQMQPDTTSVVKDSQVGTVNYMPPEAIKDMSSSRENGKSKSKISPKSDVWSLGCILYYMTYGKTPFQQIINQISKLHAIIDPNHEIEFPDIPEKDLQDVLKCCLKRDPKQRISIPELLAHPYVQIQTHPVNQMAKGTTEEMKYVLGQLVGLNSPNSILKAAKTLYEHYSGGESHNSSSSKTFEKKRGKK
# Procedure: Screening of a compound having a TTK kinase activity suppressing action using p38 MAPK peptide
# A test substance 1.0 μL (solvent: 10% (v/v) DMSO), TTK solution 5 μL (composition: 4 μg/ml TTK, 25 mM Tris-HCl, pH7.5, 5 mM β-glycerophosphate, 2 mM DTT, 0.1 mM Na3VO4, 5 mM MgCl2, 0.1% (w/v)BSA) and a substrate solution 5 μL (composition: 60 μM p38 MAPK peptide, 60 μM ATP, 25 mM Tris-HCl, pH7.5, 5 mM β-glycerophosphate, 2 mM DTT, 0.1 mM Na3VO4, 5 mM MgCl2, 0.1% (w/v)BSA) were mixed in the wells of a 384-well microtiter plate (manufactured by Corning Incorporated) made of polypropylene and loaded in a constant temperature and humidity room.
# From the resultant mixture, an aliquot of 1.7 μL was taken out and mixed with the reaction terminating solution (60 μl) in the wells of a 384-well microtiter plate (manufactured by Corning Incorporated) made of polypropylene. Thereafter, 40 μL of the mixture was transferred to a 384-well black NeutrAvidin plate (PIERCE), sealed and incubated under room temperature for 30 minutes. […] Similarly, the plate was washed with TTBS (100 μL) three times, 40 μl of a secondary antibody solution (Eu-N1 labeled Anti-mouse IgG (Perkin Elmer, #AD0124)) was added and incubated under room temperature for 30 minutes. After the plate was washed with TTBS (100 μL) five times, 40 μL of an enhance solution (Perkin Elmer) was added and incubated under room temperature for 5 minutes. […] Based on the fluorescence value in the absence of a test substance, the suppression activity of a test substance was measured.
# A549 = A549 assay: screening of cancer cell growth inhibiting compound; format: cell-based; conditions: Homo sapiens, 72 h; A549 cells, three days, WST-8; read-out: A549 IC50
# Procedure: Screening of Cancer Cell Growth Inhibiting Compound
# A cell suspension solution (RERF-LC-AI, A549: 1×10^4/ml, MRC5: 3×10^4/ml and 1×10^5/ml) adjusted to an appropriate concentration with D-MEM (hereinafter, referred to as a culture solution and manufactured by Nacalai Tesque Inc.) supplemented with 10% FBS (HyClone) was added to the wells of a 96-well plate (hereinafter, well plate) at a rate of 100 μL/well and incubated in a CO2 incubator at 37° C. for a day. […] Next, cells were added to each well of the well plate prepared and the above compound dilution solution was added at a rate of 100 μL/well to obtain 200 μL/well. Thereafter, the cells were incubated in the CO2 incubator at 37° C. for further three days. To each well of the well plate, 10 μL of a WST-8 kit (Kishida Chemical Co., Ltd.) solution for counting the number of cells was added and a color reaction was performed in the CO2 incubator for 1 to 4 hours. After the absorbance at 450 nm (reference wavelength: 620 nm) was measured by a microplate reader, suppressing action of the test substance was calculated based on the absorbance value in the absence of a test substance.
pIC50 (TTK),pIC50 (A549),SMILES
8.05,6.30 to 7.30,COC1CCN(c2cc(NCC3CCOCC3)c3ncc(-c4ccc(C(=O)NC5CC5)cc4)n3n2)CC1 [Example 2-26]
8.22,6.30 to 7.30,CCN(c1cc(NCC2CCOCC2)c2ncc(-c3ccc(C(=O)NC4CC4)cc3)n2n1)C1CCCC1 [Example 2-27]
8.43,6.30 to 7.30,CN(c1cc(NCC2CCOCC2)c2ncc(-c3ccc(C(=O)NC4CC4)cc3)n2n1)C1CCCC1 [Example 2-28]
8.21,6.30 to 7.30,COCCN(c1cc(NCC2CCOCC2)c2ncc(-c3ccc(C(=O)NC4CC4)cc3)n2n1)C1CCCC1 [Example 2-29]
7.92,6.30 to 7.30,O=C(NC1CC1)c1ccc(-c2cnc3c(NCC4CCOCC4)cc(NCC(F)(F)F)nn23)cc1 [Example 2-30]
8.41,6.30 to 7.30,CC(C)CN(CC(F)(F)F)c1cc(NCC2CCOCC2)c2ncc(-c3ccc(C(=O)NC4CC4)cc3)n2n1 [Example 2-32]
8.27,6.00 to 6.30,CC(C)CN(CC1CC1)c1cc(NCC2CCOCC2)c2ncc(-c3ccc(C(=O)NC4CC4)cc3)n2n1 [Example 2-33]
8.43,6.30 to 7.30,O=C(NC1CC1)c1ccc(-c2cnc3c(NCC4CCOCC4)cc(Nc4ccccc4O)nn23)cc1 [Example 2-34]
7.71,5.00 to 6.00,O=C(NC1CC1)c1ccc(-c2cnc3c(NCC4CCOCC4)cc(Nc4ncccc4O)nn23)cc1 [Example 2-35]
7.35,5.00 to 6.00,O=C(NC1CC1)c1ccc(-c2cnc3c(NCC4CCOCC4)cc(NC(=O)C4CCCCC4)nn23)cc1 [Example 2-36]
8.57,≥ 7.30,O=C(NC1CC1)c1ccc(-c2cnc3c(NCC4CCOCC4)cc(NC45CC6CC(CC4C6)C5)nn23)cc1 [Example 2-37]
8.35,≥ 7.30,O=C(NC1CC1)c1ccc(-c2cnc3c(NCC4CCOCC4)cc(NC4CC5CCCC(C5)C4)nn23)cc1 (stereo not shown) [Example 2-38]
7.66,6.30 to 7.30,O=C(NC1CC1)c1ccc(-c2cnc3c(NCC4CCOCC4)cc(N4CCCC4=O)nn23)cc1 [Example 2-39]
8.12,6.30 to 7.30,O=C(NC1CC1)c1ccc(-c2cnc3c(NCC4CCOCC4)cc(N4CCCCS4(=O)=O)nn23)cc1 [Example 2-40]
8.00,6.30 to 7.30,C[C@@H]1CN(c2cc(NCC3CCOCC3)c3ncc(-c4ccc(C(=O)NC5CC5)cc4)n3n2)C[C@H](C)O1 [Example 2-41]
7.90,6.00 to 6.30,O=C(NC1CC1)c1ccc(-c2cnc3c(NCC4CCOCC4)cc(N[C@H]4CC[C@H](O)CC4)nn23)cc1 [Example 2-43]
8.51,6.30 to 7.30,O=C(NC1CC1)c1ccc(-c2cnc3c(NCC4CCOCC4)cc(N4CCN(C(=O)C5CC5)CC4)nn23)cc1 [Example 2-47]
7.86,5.00 to 6.00,CC(=O)NCC1CN(c2cc(NCC3CCOCC3)c3ncc(-c4ccc(C(=O)NC5CC5)cc4)n3n2)CCO1 (stereo not shown) [Example 2-48]
7.75,6.00 to 6.30,O=C(NC1CC1)c1ccc(-c2cnc3c(NCC4CCOCC4)cc(N4CCOC(CO)C4)nn23)cc1 (stereo not shown) [Example 2-49]
7.87,6.30 to 7.30,O=C(NC1CC1)c1ccc(-c2cnc3c(NCC4CCOCC4)cc(N4CCC(C(F)(F)F)CC4)nn23)cc1 [Example 2-51]
7.75,6.30 to 7.30,COCC(C)Nc1cc(NCC2CCOCC2)c2ncc(-c3ccc(C(=O)NC4CC4)cc3)n2n1 (stereo not shown) [Example 2-52]

pIC50 (TTK),pIC50 (A549),SMILES
7.59,5.00 to 6.00,O=C(NC1CC1)c1ccc(-c2cnc3c(NCC4CCOCC4)cc(N4CCCC4)nn23)cc1 [Example 2-53]
8.13,6.30 to 7.30,O=C(NC1CC1)c1ccc(-c2cnc3c(NCC4CCOCC4)cc(NC4CC=CC4)nn23)cc1 [Example 2-54]
8.31,6.30 to 7.30,CC(C)C(C)Nc1cc(NCC2CCOCC2)c2ncc(-c3ccc(C(=O)NC4CC4)cc3)n2n1 (stereo not shown) [Example 2-55]
8.35,6.30 to 7.30,CC(C)(C)CNc1cc(NCC2CCOCC2)c2ncc(-c3ccc(C(=O)NC4CC4)cc3)n2n1 [Example 2-57]
8.26,6.30 to 7.30,CCCC(C)Nc1cc(NCC2CCOCC2)c2ncc(-c3ccc(C(=O)NC4CC4)cc3)n2n1 (stereo not shown) [Example 2-58]
8.28,6.30 to 7.30,CCC(C)CNc1cc(NCC2CCOCC2)c2ncc(-c3ccc(C(=O)NC4CC4)cc3)n2n1 (stereo not shown) [Example 2-59]
8.34,≥ 7.30,CC(Nc1cc(NCC2CCOCC2)c2ncc(-c3ccc(C(=O)NC4CC4)cc3)n2n1)C(C)(C)C (stereo not shown) [Example 2-60]
8.29,≥ 7.30,CC(Nc1cc(NCC2CCOCC2)c2ncc(-c3ccc(C(=O)NC4CC4)cc3)n2n1)C(F)(F)F (stereo not shown) [Example 2-61]
8.06,6.30 to 7.30,O=C(NC1CC1)c1ccc(-c2cnc3c(NCC4CCOCC4)cc(N4CCCC4CO)nn23)cc1 (stereo not shown) [Example 2-62]
8.54,≥ 7.30,CC1CCCCC1Nc1cc(NCC2CCOCC2)c2ncc(-c3ccc(C(=O)NC4CC4)cc3)n2n1 (stereo not shown) [Example 2-63]
8.72,≥ 7.30,O=C(NC1CC1)c1ccc(-c2cnc3c(NCC4CCOCC4)cc(NC45CC6CC(CC(C6)C4)C5)nn23)cc1 [Example 2-64]
8.35,6.30 to 7.30,COC[C@@H]1CCCN1c1cc(NCC2CCOCC2)c2ncc(-c3ccc(C(=O)NC4CC4)cc3)n2n1 [Example 2-66]
8.43,6.30 to 7.30,O=C(NC1CC1)c1ccc(-c2cnc3c(NCC4CCOCC4)cc(NC4CCC(F)(F)CC4)nn23)cc1 [Example 2-67]
8.54,≥ 7.30,CCC(C)(C)Nc1cc(NCC2CCOCC2)c2ncc(-c3ccc(C(=O)NC4CC4)cc3)n2n1 [Example 2-68]
8.35,6.30 to 7.30,O=C(NC1CC1)c1ccc(-c2cnc3c(NCC4CCOCC4)cc(NC4CCCCC4O)nn23)cc1 (stereo not shown) [Example 2-70]
8.03,5.00 to 6.00,NC1CCCCC1Nc1cc(NCC2CCOCC2)c2ncc(-c3ccc(C(=O)NC4CC4)cc3)n2n1 (stereo not shown) [Example 2-71]
8.41,6.30 to 7.30,CC1(Nc2cc(NCC3CCOCC3)c3ncc(-c4ccc(C(=O)NC5CC5)cc4)n3n2)CCS(=O)(=O)C1 (stereo not shown) [Example 2-72]
8.46,6.30 to 7.30,O=C(NC1CC1)c1ccc(-c2cnc3c(NCC4CCOCC4)cc(NC4C5CC6CC(C5)CC4C6)nn23)cc1 (stereo not shown) [Example 2-73]
8.59,≥ 7.30,CC1(Nc2cc(NCC3CCOCC3)c3ncc(-c4ccc(C(=O)NC5CC5)cc4)n3n2)CCCCC1 [Example 2-74]
8.44,≥ 7.30,CC1(Nc2cc(NCC3CCOCC3)c3ncc(-c4ccc(C(=O)NC5CC5)cc4)n3n2)CCCC1 [Example 2-75]
